What is called solubility is how much of the substance goes into solution per volume. For orientation: IC50 means the concentration at which inhibition is half-maximal. Lower therefore signals inhibition by little substance.

Read-outs that look alike come from different tables or passages of the source. Marks after values point to notes of the source that are not given here.

Results on nine compounds are retold here after US8304420B2, “Substituted quinazolines for reducing platelet count” (Shire LLC, priority 2006, dated 2012).

Series [1] can be described thus: Solubilities of salts in three solvents (Example 2). Particulars: for solubility at 3 min: 20 °C, thermodynamic from solid.
Protocol: (§1) The solubilities of various salts was investigated in three solvents [distilled water (pH 5.0), 50 mM ammonium formate (pH 7.9) and 0.1 M hydrochloric acid (pH0.6)]. An excess of the salt was suspended in the chosen medium and sonicated for 3 minutes. The mixture was centrifuged for 10 minutes, the supernatant liquid was collected and the solubility was measured.
The nature of series [2]: Aqueous solubility / solubility-pH profile.
For series [3] the following is noted: dog, in vivo. As to the method: The potential benefit of improved water solubility on the absorption of these open-ring analogues was shown in a comparative bioavailability study in the dog. Using the unsubstituted ethyl-5,6-dichloro-3,4-dihydro-2-(1H)-iminoquinazoline-3-acetate HBr as a model compound, a comparison was made of the systemic availability of anagrelide when given as this compound or as anagrelide itself in equimolar doses (7.7 & 6.1 mg/kg respectively).
The metabolite-to-drug exposure ratio after anagrelide was 1.5 compared to 0.9 after the prodrug.
The lesser variability was consistent with more efficient absorption. This study illustrated the potential benefits of the open-ring prodrugs to improve absorption.

The nature of series [4]: Conversion of prodrug to anagrelide in human plasma (LC/MS-MS). It is filed as in vitro ADME. To be noted: spiked 100 ng/mL, room temperature, first point of measurement immediately after mixing. As to the method: Such prodrugs are likely to be extremely rapidly and completely cyclised in plasma to the closed ring 3-alkylanagrelide analogues. […] Human plasma was spiked with anagrelide prodrug (final concentration 100 ng/mL). Immediately after mixing, and at 15, 30, 45 and 60 minutes afterward samples were analysed for anagrelide prodrug and anagrelide.

Series [5] in a line: Plasma exposure to metabolite after treatment with anagrelide. It counts as in vivo.
The subject of the next series is PDEIII. The series can be described thus: PDEIII inhibition. It counts as biochemical. To be noted: more potent than anagrelide itself.
The test system of series [6] is differentiation of human CD34+ stem cells into megakaryocytes. The series can be described thus: In vitro anti-megakaryocytic activity (model of megakaryocytopoiesis). It counts as cell-based. An excerpt:
Such activity may be assessed using a well established model. Assessment of the in vitro anti-megakaryocytic activity—and potentially therefore the platelet lowering capability—of the anagrelide prodrugs can be determined using the model of megakaryocytopoiesis (Cohen-Solal et al., Thromb. Haemost. 1997, 78:37-41 and Cramer et al, Blood, 1997, 89:2336-46). This involves examining the differentiation of human CD34^+ stem cells into megakaryocytes which ultimately give rise to blood platelets.

The nature of series [7]: Radiolabelling study in humans, oral 14C-labelled drug. It counts as in vivo. The protocol:
Anagrelide HCl itself is a poorly soluble drug substance. In the pH range of 4-8, the solubility is less than 10 μg/mL. […] Thus over much of the physiological pH range the drug has very poor aqueous solubility. Even material dissolving in the stomach at pH 1-2 may precipitate in the duodenum at pH 5-6. This presents potential problems for the quantitative absorption from the most likely site for absorption, namely the upper small intestine. As a consequence anagrelide is micronised prior to filling into capsules for clinical use to ensure maximal absorption. […] However for those patients requiring larger doses either as the result of relative insensitivity to the drug, higher first-pass pre-systemic metabolism or greater body weight, the possibility exists for incomplete absorption. This would be expected to lead to increased variability in attained plasma drug concentrations and consequential variability in patient response.

The next series can be described thus: physchem. To be noted: 20 °C, pH 5, water, thermodynamic from solid.
The mark [8] stands for this setting: 0.1 M hydrochloric acid, pH 0.6, simulated gastric fluid.
Setting [9] is: 50 mM ammonium formate, pH 7.9, aqueous buffer.
Setting [10] is: estimated from the solubility/pH profile.

Protocol for physchem: as §1

With `Br.COC(=O)C1(N2Cc3c(ccc(Cl)c3Cl)N=C2N)CC1`, the solubility at 3 min in series [1] (setting [8]) was 6430 µg/mL; in series [1] (distilled water, pH 5, water), 7060 µg/mL. For the same compound, in [1] (ca. 20° C., 50 mM ammonium formate, pH 7.9), the “Solubility, Ammonium formate (50 mM, pH 7.9)” value is “unstable”.

`Br.CCOC(=O)CN1Cc2c(ccc(Cl)c2Cl)NC1=N` [ethyl-5,6-dichloro-3,4-dihydro-2-(1H)-iminoquinazoline-3-acetate HBr]: the solubility in series [2] (distilled water) was ~5500 µg/mL. Moreover, in series [3] (po), the “AUC for anagrelide, range across dogs” value is recorded as 367-1470 ng.hmL^−1; the “Cmax for anagrelide, range across dogs” value was 170-418 ngmL^−1; the metabolite-to-drug exposure ratio was determined as 0.9. Further, in [3] (po, 6.1 mg/kg), the “fold higher Cmax for anagrelide than when the drug itself was administered” value is reported as “approximately 17 fold” and the “mean fold higher AUC for anagrelide than when the drug itself was administered” value came out at 16 fold. For the same compound, in [4], the “prodrug found in human plasma (conversion to anagrelide)” value is “no prodrug could be found”.

Take `CC(C)(C(=O)[O-])N1Cc2c(ccc(Cl)c2Cl)N=C1N.[Na+]`: the solubility at 3 min in series [1] (setting [9]) is 16 µg/mL; in series [1] (setting [8]), 46 µg/mL; in [1] (distilled water, pH 5, water) it was 7340 µg/mL.

Turning to `O=C1NC2=Nc3ccc(Cl)c(Cl)c3CN2C1O` (stereo not drawn) [3-hydroxyanagrelide], the “plasma exposure to metabolite relative to the drug itself” value in series [5] is reported as “three times greater”. The “potency as inhibitor of PDEIII relative to anagrelide” value with PDEIII is listed as ~40 fold.

For the compound `Br.CC1(C)C(=O)NC2=Nc3ccc(Cl)cc3CN21`, the solubility at 3 min in [1] (setting [9]) is 4 µg/mL; in series [1] (setting [8]), 215 µg/mL; in [1] (distilled water, pH 5, water), 20 µg/mL.

As to `CC1(C)C(=O)NC2=Nc3ccc(Cl)c(Cl)c3CN21` [3, 3, dimethyl anagrelide], the IC50 in series [6] was ~160 nM.

On to `Cl.O.O=C1CN2Cc3c(ccc(Cl)c3Cl)N=C2N1` [anagrelide, 6,7-Dichloro-1,5-dihydroimidazo[2,1-b]-quinazolin-2(3H)-one hydrochloride monohydrate], for which, in series [6] (hydrochloride monohydrate), the IC50 is ~27 nM. Also, in series [2] (setting [10]), the “dissociation constant pKa1” value is 2.9 and the “dissociation constant pKa2” value is recorded as 9.8. Besides, the absorption in series [7] (implied from urinary recovery after oral 1 mg) is > 75%. The “administered radioactivity recovered in the urine” value in series [7] (oral 1 mg 14C-labelled drug) is > 75%. Moreover, in series [3] (po), the “AUC for anagrelide, range across dogs” value is given as 21.6-188 ng.hmL^−1 and the “Cmax for anagrelide, range across dogs” value is given as 9.5-44.3 ngmL^−1. In addition, the inherent absorption in [3] (male, 6.1 mg/kg) was < 6.25%. Further, in series [3] (male, po), the metabolite-to-drug exposure ratio worked out at 1.5. In [3] (male, po, 6.1 mg/kg), the “AUC0-t of 3-hydroxy anagrelide, mean” value was 128 ng·h/mL; the “AUCinfin of 3-hydroxy anagrelide, mean” value was found to be 79.9 ng·h/mL; the “Cmax of 3-hydroxy anagrelide, mean” value was found to be 24.9 ng/mL; the “Tmax of 3-hydroxy anagrelide, median” value is recorded as 1.5^b hours. Further, the “t½ of 3-hydroxy anagrelide, calculated as ln2/(mean rate constant)” value in [3] (male, po, 6.1 mg/kg) is on record as 2.6^e hours.

For `Br.O=C1NC2=Nc3ccc(Cl)c(Cl)c3CN2C12CC2`, the solubility at 3 min in series [1] (setting [9]) was 1 µg/mL; in series [1] (setting [8]), 35 µg/mL; in [1] (distilled water, pH 5, water), 2 µg/mL.

`Cl.O=C1CN2Cc3c(ccc(Cl)c3Cl)N=C2N1`: the solubility at 3 min was 10 µg/mL in “physchem”, 11 µg/mL in series [1] (setting [9]) and 169 µg/mL in series [1] (setting [8]).
